In patent US4894340A, “Microbial sulfhydryl oxidase and method” (priority 1987, dated 1990):
Where two headings read alike, the source gives them in different places.

Experiments:
[1] = test system: A. niger sulfhydryl oxidase; assay: Polarographic O2 depletion assay of sulfhydryl oxidase with thiol compounds and substrates of other oxidases; format: biochemical, Aspergillus niger; details: for kcat (app)/Km (app) (head is drawing 1) / kcat (app) / Km: purified enzyme, polarographic assay; for kcat (app) / Km: double reciprocal plot; for Km: read-out: Km (app); for Activity toward substrates of other known oxidases: test compound 10 mM in 40 mM sodium acetate at pH 5.5
Procedure: Two assays have been employed to determine SHX activity. The first assay is based on the depletion of O2 from assay mixtures containing thiol compounds; oxygen depletion is measured polarographically by oxygen electrode techniques. One unit of SHX is defined as that amount of enzyme which would utilize or consume 1 umol of O2 per minute under the conditions of the assay.
Rates of O2 depletion by the purified enzyme were measured at selected concentrations of GSH, cysteine, dithiothreitol and 2-mercapto-ethanol. […] Kinetic constants were calculated from the double reciprocal plot by linear regression fitting of the data points.
The enzyme was tested for activity toward substrates of other known oxidases, including D-glucose, D-fructose, L-lysine, D-lysine, benzylamine, xanthine, putrescine, catechol, nicotinamide adenine dinucleotide (reduced) ("NADH") and nicotinamide adenine dinucleotide phosphate (reduced) ("NADPH").
In a typical assay, 2.9 mL of a mixture consisting of a thiol compound in an appropriate buffer was equilibrated with stirring to 25° C. After the vial was sealed with the electrode, a volume of 0.1 mL of enzyme solution was injected into the assay mixture. […] One unit of sulfhydryl oxidase was defined as that amount of enzyme which would deplete 1 umole of O2 per minute under the conditions of the assay. Unless otherwise indicated, the assay mixture contained 8 mM GSH in 40 mM acetate buffer, pH 5.5, at 25° C.

[2] = test system: A. niger sulfhydryl oxidase; assay: NAD/NADP as electron acceptors, absorbance at 340 nm; format: biochemical, Aspergillus niger; details: in the presence of sulfhydryl oxidase and 4 mM GSH
[3] = biological target: T1, flavin sulfhydryl oxidase from rat epididymal fluid (Rattus norvegicus, UniProt Q6IUU3); details: concentrations as high as 0.1M; cited from earlier work
T1 construct: flavin sulfhydryl oxidase from rat epididymal fluid; host or cells: rat epididymal fluid as printed
T1 sequence (Q6IUU3 33-750): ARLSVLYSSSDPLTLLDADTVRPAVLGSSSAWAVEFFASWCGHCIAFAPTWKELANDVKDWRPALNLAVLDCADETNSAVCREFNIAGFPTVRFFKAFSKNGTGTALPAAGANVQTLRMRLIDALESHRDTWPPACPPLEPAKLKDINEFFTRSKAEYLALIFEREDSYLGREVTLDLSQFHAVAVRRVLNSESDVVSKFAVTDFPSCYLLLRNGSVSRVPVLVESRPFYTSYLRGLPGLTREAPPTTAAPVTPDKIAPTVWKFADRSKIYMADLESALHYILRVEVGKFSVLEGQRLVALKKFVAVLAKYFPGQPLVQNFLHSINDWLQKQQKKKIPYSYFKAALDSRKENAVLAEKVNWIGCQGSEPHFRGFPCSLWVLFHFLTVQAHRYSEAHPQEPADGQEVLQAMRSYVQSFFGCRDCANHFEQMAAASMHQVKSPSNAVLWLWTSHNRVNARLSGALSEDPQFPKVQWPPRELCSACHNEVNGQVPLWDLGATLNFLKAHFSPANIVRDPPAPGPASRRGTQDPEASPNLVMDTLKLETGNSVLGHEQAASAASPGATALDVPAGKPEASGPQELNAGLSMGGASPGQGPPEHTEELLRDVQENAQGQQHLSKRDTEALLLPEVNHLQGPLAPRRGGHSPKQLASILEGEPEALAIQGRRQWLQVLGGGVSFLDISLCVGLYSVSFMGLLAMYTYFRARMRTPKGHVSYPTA

[4] = biological target: A. niger sulfhydryl oxidase; assay: Spectral titration with sodium sulfite (flavin-sulfite complex); format: binding, Aspergillus niger; details: read-out: Dissociation constant Kd of flavin-sulfite complex
Procedure: FIG. 3: Absorption spectra of purified sulfhydryl oxidase after reaction with sodium sulfite at pH 6, showing bleaching of the visible bond of SHX spectrum. Each spectrum was recorded 10 minutes after the addition of a small aliquot of sodium sulfite to a cuvette containing 1.8 mg/mL SHX in 50 mM sodium phosphate. Sulfite concentrations after each addition were 0 mM(1), 0.99 mM(2), 2.44 mM(3) and 152 mM(4).
Additional spectral analysis confirms that the SHX of the present invention is a flavoprotein. Most flavin oxidases, but not flavin dehydrogenases, react with sodium sulfite to form a bleached flavin-sulfite complex (Massey et al., 1969). The spectral change incurred by incubation of sulfhydryl oxidase with sodium sulfite at varying concentrations is show in FIG. 3. The dissociation constant Kd =[SHX][SO2 ]/[SHX-SO2 ]for the sulfhydryl oxidase flavin-sulfite complex was calculated from the first few spectra under the assumption that spectrum 4 in FIG. 3 represented full conversion of the enzyme to the sulfite complex, and that the initial excess of sulfite was so large that its concentration was essentially unchanged at equilibrium. The first assumption was justified by the fact that spectrum 4 (152.8 mM sulfite) was identical with the spectrum recorded when the sulfite concentration was just 42.8 mM (not shown).

[5] = test system: A. niger sulfhydryl oxidase; assay: Sulfhydryl oxidase activity in presence of chelating agents; format: biochemical, Aspergillus niger; details: 1 mM chelating agent in 0.05M phosphate buffer, pH 7.0, even after overnight incubation
Description: Since flavin oxidases containing essential metal ions are known to exist, sulfhydryl oxidase was examined for changes in activity upon treatment with the chelating agents.

sulfhydryl apooxidase = assay: Reactivation of sulfhydryl apooxidase by resolved flavins or standards; format: biochemical, Aspergillus niger; details: for Activity: apooxidase after 14 hours incubation at 0° C. with resolved flavins or standards
Description: At […], FAD is weakly fluorescent owing to quenching by its adenine moiety. FMN and other nonadenylated flavins, on the other hand, fluoresce strongly under both conditions of pH (Bessey et al., 1949); Cerletti and Siliprandi, 1958). Thus the ratio of fluorescence at basic pH to that at acidic pH distinguishes adenylated from nonadenylated flavins. […] When the isolated flavins were recombined with sulfhydryl apooxidase, only the product of treatment by boiling was capable of restoring activity to the enzyme.
Determination of sulfhydryl oxidase activity was based upon depletion of O2 from assay mixtures containing thiol compounds, as measured with a Yellow Springs Instruments oxygen monitor (model 500) equipped with a polarographic Clark-type electrodes. In a typical assay, 2.9 mL of a mixture consisting of a thiol compound in an appropriate buffer was equilibrated with stirring to 25° C. After the vial was sealed with the electrode, a volume of 0.1 mL of enzyme solution was injected into the assay mixture. The rate of oxygen depletion was constant during the first 30 seconds of the assay; thus, the initial rate of O2 depletion was taken to be sulfhydryl oxidase activity under the prevailing conditions. One unit of sulfhydryl oxidase was defined as that amount of enzyme which would deplete 1 umole of O2 per minute under the conditions of the assay. Unless otherwise indicated, the assay mixture contained 8 mM GSH in 40 mM acetate buffer, pH 5.5, at 25° C.
In reactivation experiments, freshly prepared apoenzyme was combined with flavin solution and 0.1M sodium phosphate buffer, pH 7.0, in the volume proportions 1:1:2. This mixture was incubated for 14 to 16 hours at 0° C. After the incubation period, the enzyme was separated from excess free flavin by passage through a Pharmacia PD-10 column equilibrated and eluted with 40 mM acetate buffer, pH 5.5.
The flavin component was also extracted from the enzyme by two other methods. Dialyzed sulfhydryl oxidase was boiled for 5 minutes with protection from light and cooled quickly by immersion in ice water. […]

O[C@H](CS)[C@H](O)CS (racemic) [Dithiothreitol]
kcat (app)/Km (app) (head is drawing 1) [1]: 110 min^-1 M^- 1 | kcat (app) [1]: 119 s⁻¹ | Km [1]: 66 mM

NCc1ccccc1 [benzylamine]
Activity toward substrates of other known oxidases [1]: failed to stimulate

NC(=O)C1=CN([C@@H]2O[C@H](COP(=O)(O)OP(=O)(O)OC[C@H]3O[C@@H](n4cnc5c(N)ncnc54)[C@H](O)[C@@H]3O)[C@@H](O)[C@H]2O)C=CC1 [NADH, nicotinamide adenine dinucleotide (reduced)]
Activity toward substrates of other known oxidases [1]: failed to stimulate

NC(=O)c1ccc[n+]([C@@H]2O[C@H](COP(=O)([O-])OP(=O)(O)OC[C@H]3O[C@@H](n4cnc5c(N)ncnc54)[C@H](OP(=O)(O)O)[C@@H]3O)[C@@H](O)[C@H]2O)c1 [NADP]
Electron acceptor, increase in absorbance at 340 nm [2]: did not act as electron acceptors

O=S([O-])[O-].[Na+].[Na+] [sodium sulfite]
Reaction with sulfite (changes in visible spectrum) [3]: failed to react | Kd ([4]; from spectrum 1 of FIG. 3, pH 6, 50 mM sodium phosphate): 3.04 mM | Kd ([4]; from spectrum 2 of FIG. 3, pH 6, 50 mM sodium phosphate): 2.95 mM

OCCS [2-Mercaptoethanol]
kcat (app)/Km (app) (head is drawing 1) [1]: 26 min^-1 M^- 1 | kcat (app) [1]: 145.2 s⁻¹

O=c1[nH]c(=O)c2[nH]cnc2[nH]1 [xanthine]
Activity toward substrates of other known oxidases [1]: failed to stimulate

NCCCCN [putrescine]
Activity toward substrates of other known oxidases [1]: failed to stimulate

Oc1cccc2cccnc12 [8-hydroxyquinoline]
Change in sulfhydryl oxidase activity [5]: No activity decreases

c1cnc2c(c1)ccc1cccnc12 [o-phenanthroline]
Change in sulfhydryl oxidase activity [5]: No activity decreases

Cc1cc2nc3c(=O)[nH]c(=O)nc-3n(C[C@H](O)[C@H](O)[C@H](O)COP(=O)(O)OP(=O)(O)OC[C@H]3O[C@@H](n4cnc5c(N)ncnc54)[C@H](O)[C@@H]3O)c2cc1C [Authentic FAD, flavin adenine dinucleotide]
Activity (sulfhydryl apooxidase): 0.58 units/mL

Cc1cc2nc3c(=O)[nH]c(=O)nc-3n(C[C@H](O)[C@H](O)[C@H](O)COP(=O)(O)O)c2cc1C [Authentic FMN, flavin mononucleotide]
Activity (sulfhydryl apooxidase): 0.0 units/mL | Restoration of apooxidase activity toward GSH (sulfhydryl apooxidase; excess FMN, pH 3 to 9, various buffer salts): did not result in any detectable restoration of activity

NC(=O)c1ccc[n+]([C@@H]2O[C@H](COP(=O)([O-])OP(=O)(O)OC[C@H]3O[C@@H](n4cnc5c(N)ncnc54)[C@H](O)[C@@H]3O)[C@@H](O)[C@H]2O)c1 [NAD]
Electron acceptor, increase in absorbance at 340 nm [2]: did not act as electron acceptors

N[C@@H](CS)C(=O)O [Cysteine]
kcat (app)/Km (app) (head is drawing 1) [1]: 230 min^-1 M^- 1 | kcat (app) [1]: 166.2 s⁻¹ | Km [1]: 43 mM

NCCCC[C@H](N)C(=O)O [L-lysine]
Activity toward substrates of other known oxidases [1]: failed to stimulate

Oc1ccccc1O [catechol]
Activity toward substrates of other known oxidases [1]: failed to stimulate

O=C(CO)[C@@H](O)[C@H](O)[C@H](O)CO [D-fructose]
Activity toward substrates of other known oxidases [1]: failed to stimulate

NCCCC[C@@H](N)C(=O)O [D-lysine]
Activity toward substrates of other known oxidases [1]: failed to stimulate

OC[C@H]1OC(O)[C@H](O)[C@@H](O)[C@@H]1O (stereo partly drawn) [D-glucose]
Activity toward substrates of other known oxidases [1]: failed to stimulate

N[C@@H](CCC(=O)N[C@@H](CS)C(=O)NCC(=O)O)C(=O)O [Glutathione]
kcat (app)/Km (app) (head is drawing 1) [1]: 26,000 min^-1 M^- 1 | kcat (app) [1]: 131.2 s⁻¹ | Km [1]: 0.3 mM

NC(=O)C1=CN([C@@H]2O[C@H](COP(=O)(O)OP(=O)(O)OC[C@H]3O[C@@H](n4cnc5c(N)ncnc54)[C@H](OP(=O)(O)O)[C@@H]3O)[C@@H](O)[C@H]2O)C=CC1 [NADPH, nicotinamide adenine dinucleotide phosphate (reduced)]
Activity toward substrates of other known oxidases [1]: failed to stimulate
